Read-outs that look alike come from different tables or passages of the source.
Tests used:
HBV replication [1] = test: Inhibitory effect on HBV replication in 2.2.15 cell culture; format: cell-based, hepatitis B virus; details: for EC50: Hepatitis B virus, 216 h, read-out: ED50 (inhibitory effect on HBV replication); for SI (Selectivity Index, IC50/ED50): cytotoxicity IC50 / HBV ED50, 2.2.15 cell culture
Excerpt: Inhibitory effect on HBV replication was examined by the use of 2.2.15. cell. 2.2.15. cell line (see, Sells et al., Journal of Virology, 62, 2836-2844, 1988) is a hepatoma cell infected by hepatitis B virus and is a representative standard cell which accurately standardizes all the essential viral characteristics induced by a chronic HBV infection. That is, 2.2.15. cell has some merits such that DNA pattern is stable, replicated virus exists in high level, virus-specific RNA replicate and protein are present in an appropriate size and pattern, the penetrated HBV virion is excreted in high titer, etc. Therefore, it has been recognized as a very suitable cell line which can be used when the anti viral activity of any compound on HBV is evaluated (see, Korba and Milman, Antiviral Research, 15, p217-228, 1991).
First, the present inventors cultured 2.2.15. cell and treated the cell with the novel compound according to the present invention. Then, extraction of DNA and RNA, gel electrophoresis, and hybridization analysis of HBV DNA were carried out to identify the inhibitory activity of the compound of the present invention on HBV replication. Herein, untreated cell was used as a control and ddC (dideoxy cytidine) widely known as a therapeutic agent for hepatitis was used as a comparative compound. As a result, it could be seen that the genipin derivative according to the present invention has an excellent inhibitory effect on replication like the known ddC.
Test for identifying the anti HBV effect of the compound of the present invention was carried out according to a known assay method (see, Korba and Milman, Antiviral Res., 15, 217, 1991). The assay procedure is briefly described in the following.
2.2.15. cell was cultured and preserved in RPM 11640 culture medium containing 5% fetal bovine serum(FBS), 2 mM glutamine and 50 μg/ml gentamicin sulfate. Resistance to G418 of the cell culture and degree of Mycoplasma contamination were examined according to conventional methods.
Cells (1×10^4 /cm^2) were inoculated into a multi-well tissue culture plate, confluently cultured for 7 days, and then kept for 2 or 3 days in confluent condition to stabilize the HBV DNA level. Then, culture medium was replaced 24 hours before cells were exposed to test compound. During the treatment of 9 days, culture medium was replaced and then test compound was added to the fresh culture medium at intervals of 24 hours. Culture medium was collected immediately before the first introduction of test compound, and after 3, 6, 9 days, respectively, and stored at -70° C. before HBV DNA analysis. Then, cytolysis was carried out to analyze the intracellular HBV DNA.
To analyze the extracellular HBV DNA, 0.2 ml of culture medium was incubated in 1M NaOH/10×SSC (1×SSC=0.15M NaCl/0.015M sodium citrate, pH 7.2) for 20 minutes at 25° C. and then immediately applied to a nitrocellulose membrane presoaked in 20×SSC using a slot blot apparatus. The sample was washed twice with 0.5 ml of 1M Tris/2M NaCl (pH 7.2) and once with 0.5 ml of 20×SSC to neutralize, and then it was washed again with 2×SSC and heated at 80° C. for one hour under vacuum. Generally, the cells which have been cultured and preserved in a dish having a diameter of 10 cm are dissolved in 6 ml of lysis buffer, and the […] is prepared according to the method of Korba et al., 1991.
10 μg/lane of cellular DNA sample was digested with restriction enzyme Hind III. Then, the digested sample was applied to 1% agarose gel electrophoresis and transferred to a nitrocellulose membrane.
3.2 kb HBV DNA fragment obtained by EcoR 1-digestion and purification was labeled with [^32 P]dCTP using nick translation method. This labeled fragment was used as a hybridization probe. Conditions for hybridization and post-washing were controlled by referring to the method of Korba et al., 1991 and HBV nucleic acid content among test sample was determined by Ambis beta scanner. […]

[2] = Cytotoxicity test (neutral red dye uptake); format: cell-based; details: human, 2.2.15 cells, A510, 2.2.15 cell, cells treated as in Biological Example 1, read-out: IC50 (cytotoxicity)
Procedure: Further, the present inventors have performed cytotoxicity test using the neutral red dye uptake method to determine that the anti viral effect of the compound of formula (I) […] its general influence on cell growth. As a result, it was identified that the toxicity of the compound of formula (I) is much less than that of ddC.
Cytotoxicity test was carried out in order to determine whether the anti viral effect of the compound according to the present invention is due to the general influence on cell growth or not. In the present experiment, neutral red dye uptake method was used. This is a standard method widely utilized for examining cell survival, by which the variety of relations between viruses such as HSV or HIV and host organism can be understood.
Cytotoxicity test was performed on a 96-well tissue culture plate. Cells were cultured and treated with test compounds in the same manner as Biological Example 1, and the experiments at 4-kind concentrations were repeated threetimes, respectively. Since the relative toxicity can be determined from the uptake level of neutral red dye, quantitative analysis was carried out using the absorbance of internalized dye at 510 nm (A510).
Inhibitory effect of the compound of formula (I) on HBV replication in 2.2.15 cell culture, cytotoxicity, and SI (Selectivity Index, IC50 /ED50)

[3] = cited from earlier work
HBV replication [4] = details: therapeutic agent for hepatitis B; cited from earlier work
[5] = 2.2.15 cell culture, treatment of 9 days

| SMILES | EC50 (HBV replication [1]; [5]) | CC50 [2] | SI (Selectivity Index, IC50/ED50) (HBV replication [1]) | in vivo activities (in words) [3] | inhibition of HBV replication (in words) (HBV replication [4]) | EC50 (HBV replication [1]) |
| --- | --- | --- | --- | --- | --- | --- |
| CO[C@@H]1OC=C(C=O)[C@H]2CC=C(C=O)[C@@H]12 [Compound 1, (1R,4aS,7aS)-4,7-diformyl-1-metboxy-1,4a,5,7a-tetrahydrocyclopenta-[c]pyran] | > 500 µM | 120 µM |  |  |  |  |
| COc1ccc(COCC2=CO[C@@H](OC)[C@@H]3C(C=NO)=CC[C@H]23)cc1 [Compound 2, (1R,4aS,7aS)-7-hydroxyiminomethyl-1-methoxy-4-(p-methoxybenzyloxymethyl)-1,4a,5,7a-tetrahydrocyclopenta[c]pyran] | 30 µM | 90 µM | 3.0 |  |  |  |
| COC(=O)C1=CO[C@@H](OC(=O)c2ccncc2)[C@@H]2C(COC(=O)c3ccncc3)=CC[C@H]12 [Compound 11, Methyl (1S,4aS,7aS)-1-isonicotinoyloxy-7-isonicotinoyloxymethyl-1,4a,5,7a-tetrahydrocyclopenta[c]pyran4-carboxylate] | 30 µM | > 200 µM | > 6.7 |  |  |  |
| COC(=O)C1=CO[C@@H](OCc2ccccc2)[C@@H]2C(C=O)=CC[C@H]12 [Compound 13, Methyl (1R,4aS,7aS)-1-benzyloxy-7-formyl-1,4a,5,7a-tetrahydrocyclopenta[c]pyran-4-carboxylate] | 20 µM | 50 µM | 2.5 |  |  |  |
| COC(=O)C1=CO[C@@H](OCc2ccccc2)[C@@H]2C(C=NO)=CC[C@H]12 [Compound 14, Methyl (1R,4aS,7aS)-1-benzyloxy-7-hydroxyiminomethyl-1,4a,5,7a-tetrahydrocyclopenta[c]pyran-4-carboxylate] | 15 µM | 130 µM | 8.7 |  |  |  |
| OCC1=C[C@@H](O)[C@@H]2C=CO[C@@H](O[C@@H]3O[C@H](CO)[C@@H](O)[C@H](O)[C@H]3O)[C@H]12 [aucubin] |  |  |  | liver-protection, inhibition of biosynthesis of RNA and protein, detoxification as well as antiviral activity | inhibit the HBV replication |  |
| Nc1ccn([C@H]2CC[C@@H](CO)O2)c(=O)n1 [ddC, dideoxy cytidine, reference compound] |  | > 30 µM | > 2.0 |  |  | 15 µM |
| COC(=O)C1=CO[C@@H](O)[C@@H]2C(CO)=CC[C@H]12 [genipin] |  |  |  | liver-protection, inhibition of biosynthesis of RNA and protein, detoxification as well as antiviral activity | inhibit the HBV replication |  |
